The test system of test [1] is HCT116 human colon carcinoma xenograft with null p53 (HCT116 p53−/−). Put plainly: HCT116 p53-/- xenograft, single agent and combination with cisplatin or vincristine. The class given is in vivo, female athymic nude mice. To be noted: for % TGD (tumor growth delay) / time to study endpoint (TTE): endpoint tumor volume of 1000 mm^3, CROMOC36 as single agent or in combination; for time to study endpoint (TTE): control Day 23; for tumor growth inhibition: single-agent reference, q7dx5 (CDDP 4 mg/kg, VCR 2 mg/kg). On the procedure: A study was conducted to evaluate the efficacy and tolerability of CROMOC36 against an HCT116 human colon carcinoma xenograft model with null p53 (HCT116 p53−/−) in female athymic nude mice. CROMOC36 was administered subcutaneously (s.c.) three times at intervals of two weeks (q14dx3) as a single agent or in combination with cisplatin (CDDP) at 4 mg/kg or vincristine (VCR) at 2 mg/kg which were both administered five times at intervals of one week (q7dx5). CROMOC36 was tested at 32 mg/kg or using a decreasing dosage of 32-16-16 mg/kg. CDDP and VCR were also administered as single agents to allow comparison of the efficacy of CROMOC36 with commonly used anticancer drugs. The dose and schedule of CDDP and VCR treatments remained the same when tested as single agents or in combination with CROMOC36. […] Efficacy was also evaluated by measuring the tumor growth delay (TGD) and the number of regression responses.

In test [2] the test system is murine Lewis lung carcinoma. Kind of test: Lewis lung carcinoma (LLC) model, primary tumor growth and metastasis. On the procedure:
The efficacy of CROMOC36 on the Lewis lung carcinoma (LLC) model, was selected for testing the activity of CROMOC36 against primary tumor growth and metastasis formation. CROMOC36 was tested as a single agent and in combination with Cyclophosphamide (CYPP). In addition, single-agent CYPP was used as a reference compound, allowing comparison of the efficacy of CROMOC36 with a commonly used antitumor agent (summarized in FIG. 9).

Test [3] deals with human pancreatic tumor cell lines. Kind of test: Propidium iodide based monolayer proliferation assay, panel of 13 human pancreatic tumor cell lines. To be noted: Homo sapiens, 96 h; 13 pancreatic cell lines, four days treatment; read-out: geomean IC50. As for the experimental part: (§1) Monolayer Assay Propidium Iodid (PI). Cells were harvested from exponential phase cultures, counted and depending on the cell line 3.000 to 20.000 cells were plated in 96-well flat-bottom microtiter plates After a 24 h recovery period to allow cells to resume exponential growth, 10 μl of culture medium (four control wells/plate) or culture medium with the test compound were added by a liquid handling robotic system and treatment continued for four days. Compounds were applied in half-log increments at 10 concentrations in duplicate. Three independent experiments were performed. Cells were then washed with 200 μl PBS to remove dead cells followed by addition of 200 μl of a solution containing 7 μg/ml propidium iodide (PI) and 0.1% (v/v) Triton X-100. After an incubation period of 1-2 h at room temperature, fluorescence (FU) was measured using the Cytofluor 4000 microplate reader (excitation λ=530 nm, emission λ=620 nm) to quantify the amount of attached viable cells. Concentrations required for 50% inhibition of cell growth (IC50) were calculated by non-linear regression (log[conc. of inhibitor]versus response (% T/C)) using the analysis software GraphPad Prism®, Prism 5 for windows, version 5.01 (GraphPad Software Inc., CA).
CROMOC36—in vitro activity Human pancreatic carcinoma cell lines. The aim of this study was to investigate the antitumor activity of CROMOC36 in vitro on a panel of 13 human pancreatic tumor cell lines. Antitumor activity was assessed after four days of CROMOC36 treatment using a propidium iodide based monolayer proliferation assay. Up to four experiments were performed in each cell line, testing CROMOC36 at ten concentrations in half-log increments up to 1 μM. Taxol, an antitumor agent commonly used for the treatment of pancreatic cancer, was used as a reference compound and tested in half-log steps up to 0.3 μM.

Another test concerns Osteosarcoma (U2OS) cell. Put plainly: Monolayer Sulphorhodamine B (SRB) staining assay, 72 hours, preCROMOC-DDM fusion molecules. The class given is cell-based, human. The following applies: CPP fused to preCROMOC. As for the experimental part:
Cells were harvested from exponential phase cultures, and depending on the cell line 10.000 to 30.000 cells were plated in 96-well flat-bottom microtiter plates. After a 24 h recovery period to allow cells to resume exponential growth, supernatant was discarded and 100 μl of culture medium (eight control wells/plate) or culture medium with the test compound were added by a liquid handling robotic system (Microlab® Starlet, Hamilton) and treatment continued for 72 hrs. Compounds were applied at 9 concentrations eight wells/concentration). At least three independent experiments were performed. For SRB staining, cells were fixed with SRB01 for 1h at 4° C. (final concentration of TCA=10%) washed with a plate washer (Hydroflex, Tecan©) for five times with H2O; and stained with 100 μl of SRB02 at room temperature for 10 min following 4 washes in SRB03 and finally 100 μl of developer solution SRB04 for 5 minutes with shaking. Optical density was assessed using a plate-reader (Sunrise, Tecan©) at 540 nm. Concentrations required for 50% inhibition of cell growth (IC50) were calculated by non-linear regression (log[conc. of inhibitor] versus response (% T/C)) using the analysis software GraphPad Prism®, Prism 5 for windows, version 5.01 (GraphPad Software Inc., CA). (SRB Buffers FIG. 25).

Another test relates to HEPG2. Kind of test: Monolayer assay, 96h treatment, HEPG2. The class given is cell-based, human. The following applies: Homo sapiens; HEPG2, 96h treatment. As for the experimental part: as §1
(§2) CROMOC36—in vitro activity Human hepatocellular carcinoma cell lines IC50 values of CROMOC36 and Sorafenib, 96h treatment. […]

In another test the test system is HEP3B. Kind of test: Monolayer assay, 96h treatment, HEP3B. Format: cell-based, human. The following applies: Homo sapiens. On the procedure:
as §1, §2

The next test relates to LIXF 575L. Put plainly: Monolayer assay, 96h treatment, LIXF 575L. The class given is cell-based, human. The following applies: Homo sapiens. As for the experimental part:
as §1, §2

For test [4], the system named is Human hepatocellular carcinoma cell lines. Kind of test: Monolayer assay, human hepatocellular carcinoma cell lines, 96h treatment (geomean of three lines). Format: cell-based. To be noted: Homo sapiens; three HCC cell lines, 96h treatment. As for the experimental part:
as §1
CROMOC36—in vitro activity Human hepatocellular carcinoma cell lines IC50 values of CROMOC36 and Sorafenib, 96h treatment. […] The individual results for CROMOC36 are included in FIG. 24. […] The individual results for Sorafenib are included in (FIG. 24).

Test [5] deals with IMR32 human neuroblastoma xenograft. Put plainly: IMR32 human neuroblastoma xenograft model. The class given is in vivo, mice. To be noted: single agent, q14dx2; CROMOC36 32 mg/Kg s.c.; doxorubicin 8 mg/kg i.v. The text has this: FIG. 11: IMR32 s.c. implanted. Treatment on xenograft mice with advanced tumors (volume >50 mm^3). Variation in tumor volume expressed as percentage with respect to initial volume (day 0; designated as 100%). Final measurements for vehicle (PBS) and Doxorubicin groups were taken on day 42. For the remaining groups, final measurements were taken on day 63, the termination day of the experiment. Growth reduction compared to controls on day 42 (p<0.01).
The aim of this study was to assess the in vivo efficacy of CROMOC36 on a IMR32 human neuroblastoma xenograft model. CROMOC36 was administered subcutaneously (s.c.) at intervals of two weeks (q14dx2) at two different doses (32 mg/Kg) and also in combination with doxorubicin administered intravenously (i.v.) (32/kg CROMOC36+4+4 mg/Kg doxorubicin, s.c and i.v., q14dx2). Doxorubicin was also used alone as a reference compound (8 mg/kg, i.v., q14dx2). Vehicle was PBS.
Background: Xenograft models place foreign cells or tissue in a host animal.

For test [6], the system named is M5076 ovarian reticulum sarcoma tumor cell line. Put plainly: M5076 artificial hepatic metastasis model, i.v. route. The following applies: CROMOC36 16 mg/kg i.v. q7dx3; Doxorubicin 6 mg/kg q4dx3 (MTD).
Test [7] concerns human colon carcinoma with null p53 (HCT116 p53−/−) xenograft. Put plainly: HCT116 p53-/- xenograft, CROMOC36 versus nuclease impaired CROMOC60. The class given is in vivo, mouse. To be noted: s.c. 4 mg/kg on days 0, 1, 2, 3, 6, 7, 8, 9, 10, 20, 22, 24. As for the experimental part:
FIG. 7: HCT116 p53−/− human colon carcinoma xenograft. Treatment on advanced tumors (volume >50 mm^3). Dose: CROMOC36 4 mg/kg; CROMOC60 4 mg/kg. Treatment: s.c. administration on day 0, 1, 2, 3, 6, 7, 8, 9, 10, 20, 22, 24.
A study was conducted to test the antitumor efficacy of CROMOC36 on an advanced human colon carcinoma with null p53 (HCT116 p53−/−) xenograft model and compare it to a vehicle or a nuclease impaired version CROMOC60 treatment group. CROMOC60 is no more catalytically active as a nuclease but is able to be transported to the nucleus of a cell. This study was also designed to proof that the active principle of the tumor growth inhibiting activity of CROMOC is the nuclease activity in vivo. CROMOC36 and CROMOC60 were both administered subcutaneously (s.c.) at 4 mg/kg dose on the days 0, 1, 2, 3, 6, 7, 8, 9, 10, 20, 22, 24. […] This also proofs that CROMOC36 can serve as a valid DNA DSB reagent.

One may read the IC50 as the point on the concentration scale where inhibition reaches its midpoint.

Regarding `CC[C@]1(O)C[C@H]2CN(CCc3c([nH]c4ccccc34)[C@@](C(=O)OC)(c3cc4c(cc3OC)N(C=O)[C@H]3[C@@](O)(C(=O)OC)[C@H](OC(C)=O)[C@]5(CC)C=CCN6CC[C@]43[C@@H]65)C2)C1` [VCR, vincristine, reference compound], in [1], the “% TGD (tumor growth delay)” value was 52%, the “time to study endpoint (TTE)” value is 35 days and the tumor growth inhibition is on record as 45.4%.

`O=P1(N(CCCl)CCCl)NCCCO1` (centres unmarked) [CYPP, Cyclophosphamide, reference compound]: the “inhibition of number of metastases” value in test [2] (CYPP single agent, 180 mg/kg) is reported as 62%. In [2] (single agent, CROMOC36 s.c. q2dx5), the “tumor growth inhibition (TI), primary tumor” value is reported as 78.6%.

With `CC(=O)O[C@H]1C(=O)[C@@]2(C)[C@H]([C@H](OC(=O)c3ccccc3)[C@]3(O)C[C@H](OC(=O)[C@H](O)[C@@H](NC(=O)c4ccccc4)c4ccccc4)C(C)=C1C3(C)C)[C@]1(OC(C)=O)CO[C@@H]1C[C@@H]2O` [Taxol, reference compound], the half-inhibitory concentration (IC50) in test [3] was 0.00199 µM.

Take “GNSGSGKKKKKGKGSGLGSGKKKDPLGSGLGSGKKKKKGKGSGLGSGKKKDPLGST (peptide, DDM36)”: the “activity in the SRB assay compared with TAT, Pentratin, and Transportan” value with Osteosarcoma (U2OS) cell is reported as “orders of magnitude higher activity”.

As for `[NH2][Pt]([NH2])([Cl])[Cl]` [CDDP, cisplatin, reference compound], in [1], the “% TGD (tumor growth delay)” value was determined as 48%, the “time to study endpoint (TTE)” value was determined as 34 days and the tumor growth inhibition is 47.2%.

In the case of `CNC(=O)c1cc(Oc2ccc(NC(=O)Nc3ccc(Cl)c(C(F)(F)F)c3)cc2)ccn1` [Sorafenib, reference compound], the IC50 in the test with HEPG2 came out at 5.97 µM; in the test with HEP3B, 2.83 µM; in the test on LIXF 575L it was 6.07 µM; in [4] it was 4.68 µM.

In the case of `COc1cccc2c1C(=O)c1c(O)c3c(c(O)c1C2=O)C[C@@](O)(C(=O)CO)C[C@@H]3O[C@H]1C[C@H](N)[C@H](O)[C@H](C)O1` [Doxorubicin, reference compound], the “tumor growth inhibition (TGI) compared to controls” value in test [5] turned out to be 10%. For the same molecule, the “% ILS (mean survival time versus control group)” value in test [6] is given as 32%.

B1: CROMOC60: nuclease impaired version; no more catalytically active as a nuclease but able to be transported to the nucleus (protein)
chain: MSHPDLNKLLELWPHIQEYQDLALKHGINDIFQDNGGKLLQVLLITGLTVLPGREGNDAVDNAGQEYELKSINIDLTAGFSTHHHMNPVIIAKYRQVPWIFAIYRGIAIEAIYRLEPKDLEFYYDKWERKWYSDGHKDINNPKIPVKYVMEHGTKIYGSGGSGGSSHPDLNKLLELWPHIQEYQDLALKHGINDIFQDNGGKLLQVLLITGLTVLPGREGNDAVDNAGQEYELKSINIDLTAGFSTHHHMNPVIIAKYRQVPWIFAIYRGIAIEAIYRLEPKDLEFYYDKWERKWYSDGHKDINNPKIPVKYVMEHGTKIYGNSGSGKKKKKGKGSGLGSGKKKDPLGSGLGSGKKKKKGKGSGLGSGKKKDPLGST
modifications: peptide, CROMOC60
Consider B1, for which, in test [7], the “progression of HCT116 p53−/− human colon carcinoma as compared to vehicle control” value is “not”.

The record behind these values is patent US20250295796A1, “CELL PENETRATING POLYPEPTIDES (CPPS) AND THEIR USE IN HUMAN THERAPY” (RDP PHARMA AG, priority 2021, published 2025).
